Data on one compound can be found in patent publication US9351998B2, “Methods of nourishing animals” (MariCal, Inc., priority 2008, dated 2016).

Assay [1] has as its system chick CaSR. Put plainly: Plasma calcium in chicks after single oral gavage of CaSR modulator. The format is in vivo. As to conditions: various doses, 2 week old and newly hatched chicks, various intervals of time. An excerpt: Male chicks (either newly hatched or 2 weeks of age) were gavaged with a single application of various doses of the specific CaSR modulator (MC 0100), a specific pharmacological modulator of CaSRs, to increase the apparent sensitivity of the CaSR to agonists such as calcium. An increase in the apparent sensitivity of the chick CaSR to extracellular calcium is expected to result in the “resetting” of the normal range of calcium within the chick to a lower level of plasma calcium since the functioning CaSR are all shifted leftward (more sensitive) on the dose response curve of CaSR for calcium.

Assay [2] is described as follows: Nonstressed pen trial, serum parameters of broiler chickens given feed additives. It counts as in vivo, broiler chickens (Cobb). The conditions noted are these: feed additive, MC0100 10 mg/kg or Mintrex Zn 250 mg/kg, Day 14. The source says: Male Cobb strain broiler chickens were reared in standard minipens and fed standard feed.

Take `COc1cccc([C@@H](C)NCCCc2ccccc2)c1` [MC0100]: the plasma calcium result in assay [1] is “dose dependent decrease”. The “mean serum calcium concentration compared to Control” value in assay [2] is given as “significant reductions”.
